According to US7608716B2, “Pyrazolonaphthyridine derivative” (Aska Pharmaceutical Co., Ltd., priority 2002, dated 2009):

Assays:
ICR mice = assay: Toxicology study (1-week administration to mice); assay type: in vivo; conditions: oral, 100 or 300 mg/10 ml/kg, one week
Experimental: The Compound of the present invention (Example No. 9) was administered orally to ICR mice (5 animals per group) as a test compound. […] The test compound was suspended in 0.5% CMC-Na solution and given orally to the animal at a dose of 100 or 300 mg/10 ml/kg in a forced manner.

[1] = system: actively sensitized guinea pigs; assay: Inhibition of antigen-induced immediate asthmatic response (airway resistance, Konzett-Rossler); assay type: in vivo, Hartley guinea pigs; conditions: Cavia porcellus, oral, 60 minutes prior to antigen-challenge, reduction of increase in airway resistance, read-out: Inhibition of Asthmatic response ED50: mg/kg orally
Experimental: Male Hartley outbred guinea pigs were sensitized by administering intraperitoneally physiological saline (0.5 ml) containing ovalbumin (1 mg, antigen) and 5×10^9 inactivated Bordetella pertussis dead cells (adjuvant). Eleven to thirteen days after the first sensitization, 0.05 ml of an ovalbumin solution (1 mg/ml) (ovalbumin is dissolved in physiological saline) was administered to the lateroabdominal region of each guinea pig intracutaneously. An establishment of sensitization was checked relying on cutaneous reaction. Only guinea pigs wherein significant reddening responses occurred 5 to 10 minutes later were employed in the next measurement test for airway resistance.
The guinea pigs (3 animals per group) actively sensitized in the above step (1) were employed to measure for their airway pressure according to Konzett-Rossler method (Arch. Exp. Path. Pharmakol., 195, 71 (1940)).
Thirteen days after the final sensitization, guinea pigs fasted overnight, and were on the next day anesthetized with a pentobarbital solution (30 mg/1.2 ml/kg, dissolved in physiological saline, intraperitoneal administration). After the guinea pigs were fixed in a supine position, their trachea was incised followed by insertion with one port of a 4-port cannula. Among the remaining 3 ports, 2 ports were connected to an artificial respirator (Model 683, Harvard). The animals were ventilated with 10 ml/kg of air per ventilation at a rate of 60 beats/min via the artificial respirator from the cannula. One port remainder was connected to a respiratory amplifier (AR-601G, Nihon Kohden, Japan) via an airflow resistance tube (TV-241T, Nihon Kohden, Japan) and a differential pressure transducer (TP-602T, Nihon Kohden, Japan) connected with a control box (RY-111S, Nihon Kohden, Japan). From a catheter inserted into a left carotid artery, blood pressures were monitored with a blood pressure measurement unit (AP641G, NEC Corp., Japan) via a blood pressure transducer (TP-300T, Nihon Kohden, Japan), and heart rates were recorded on a thermal recorder (WT-685G, Nihon Kohden, Japan), relying on blood pressure pulse waves after being led to a cardiograph unit (AT601G, Nihon Kohden, Japan).
After airway pressure became stable, an ovalbumin solution (1 mg/ml, dissolved in physiological saline) was administered at a dose of 1 ml/kg via a tube with which the right jugular vein of guinea pigs was cannulated.
Each test compound was suspended in 0.5% CMC-Na solution and administered orally with an oral sound at a dose of 0.03 to 20 mg/2 ml/kg 60 minutes prior to the antigen-challenge. Control groups received only 0.5% CMC-Na solution in an equivalent amount. The pentobarbital-anesthetization and tracheal incision were conducted 30 minutes prior to the antigen-challenge.
Each percent reduction of increase in airway resistance (each test compound-administered group versus control group) was calculated according to the equation given below. ED50 was obtained by Probit method.

Row | SMILES | Abnormality in other parameters (ICR mice) | Body weight gain (ICR mice) | Mortality (ICR mice) | ED50 [1]
1 | O=c1c2c(Cc3ccccc3)n[nH]c2c2cccnc2n1-c1ccccc1 [Example No. 9, 3-benzyl-5-phenyl-1H-pyrazolo[4,3-c][1,8]naphthyridin-4 (5H)-one] | no abnormality was observed | No reduction of body weight gains was observed | None of the animals were died | 0.16 mg/kg
2 | O=c1c2c(Cc3ccc(F)cc3)n[nH]c2c2cccnc2n1-c1ccccc1 [Example No. 33, 3-(4-fluorobenzyl)-5-phenyl-1H-pyrazolo[4,3-c][1,8]naphthyridin-4 (5H)-one] | – | – | – | 0.33 mg/kg
